Laboratory results published in patent publication US20040136975A1 (priority 2004, published 2004).

Legend:
[1] = system: transfected EC cells; details: cited from earlier work
[2] = system: VEGF; details: cited from earlier work
[3] = system: non-transformed (pDCR) NIH 3T3 cells; test: cells; type: cell-based; details: Mus musculus, NIH3T3, 48 h, read-out: inhibition of growth
[4] = system: transformed cells; details: cited from earlier work

Molecule | basal motility and motility stimulated by JNK agonists [1] | up-regulation of VEGF by heregulin [2] | inhibition at 50 µM [3] [%] | morphological reversion of transformed cells [4]
trans-retinoic acid | decreased | – | – | –
SB203580 | – | blocks | – | –
COc1cccc(-c2cc(=O)c3ccccc3o2)c1N [PD98059] | – | not | 50 | causes morphological reversion
COc1cc(/C=C/C(=O)CC(=O)/C=C/c2ccc(O)c(OC)c2)ccc1O [curcumin] | decreased | – | – | –
